Drawing on US12336982B2 (RODEO THERAPEUTICS CORPORATION, priority 2018, dated 2025), this text covers IC50 for 67 molecules.

In this test the target is T1, recombinant 15-PGDH (Homo sapiens, UniProt P15428).
T1 sequence (P15428 1-266): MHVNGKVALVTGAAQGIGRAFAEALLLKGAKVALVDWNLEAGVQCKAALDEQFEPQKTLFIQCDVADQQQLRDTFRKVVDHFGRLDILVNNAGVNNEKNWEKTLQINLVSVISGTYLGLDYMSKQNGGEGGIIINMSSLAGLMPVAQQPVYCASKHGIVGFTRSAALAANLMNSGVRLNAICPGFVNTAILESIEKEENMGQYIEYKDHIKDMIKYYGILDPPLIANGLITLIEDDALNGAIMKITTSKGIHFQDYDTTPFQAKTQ
The test is classed as biochemical. Particulars: recombinant human 15-PGDH, in vitro; read-out: PDGH Assay-IC50.

Source text: The Recombinant 15-PGDH is human unless otherwise specified.

For orientation: IC50 means the concentration at which inhibition is half-maximal. As for `COCC[S@@+]([O-])c1sc2nc(-c3cnc(N)nc3)cc(C3CC3)c2c1N` [Example 150], the 50% inhibitory concentration (IC50) was under 2.5 nM.

For `Nc1c([S@@+]([O-])C2CCC2)sc2nc(-c3cnc(NCCO)nc3)cc(-c3ccccn3)c12` [Example 95], the IC50 is at least 10 nM.

Consider `Cn1nccc1-c1cc(-c2cnc3nnn(C)c3c2)nc2sc([S+]([O-])C3CCC3)c(N)c12` (stereo not shown) [Example 370], for which the IC50 is under 2.5 nM.

As to `COCC[S+]([O-])c1sc2nc(-c3ccc4c(=O)[nH]ccc4c3)cc(-c3ccnn3C)c2c1N` (stereo not shown) [Example 317], the half-inhibitory concentration (IC50) is under 2.5 nM.

`COCCC[S+]([O-])c1sc2nc(-c3cnc(NCCO)nc3)cc(-c3ccc(F)cc3)c2c1N` (stereo not shown) [Example 71]: the 50% inhibitory concentration (IC50) was in the range of 2.5 to 10 nM.

For the molecule `COCC[S+]([O-])c1sc2nc(-c3cnc4nn(C)cc4c3)cc(-c3ccn(C)n3)c2c1N` (stereo not shown) [Example 342], the concentration for half-maximal inhibition (IC50) is under 2.5 nM.

On to `COCCC[S@@+]([O-])c1sc2nc(-c3cccnc3)nc(-c3ccccc3)c2c1N` [Example 54], for which the IC50 was under 2.5 nM.

Consider `COCCC[S+]([O-])c1sc2nc(-c3cncnc3)cc(-c3ncccn3)c2c1N` (stereo not shown) [Example 91], for which the concentration for half-maximal inhibition (IC50) is under 2.5 nM.

For `CNC(=O)c1ncc(-c2cc(-c3ccccc3)c3c(N)c([S+]([O-])CCCOC)sc3n2)cn1` (stereo not shown) [Example 165], the half-inhibitory concentration (IC50) lay within 2.5 to 10 nM.

Regarding `CS(=O)(=O)Nc1ncc(-c2cc(-c3ccccc3)c3c(N)c([S@@+]([O-])C4CCC4)sc3n2)cn1` [Example 69], the IC50 was at least 10 nM.

In the case of `COCCC[S@@+]([O-])c1sc2nc(-c3cnc(N)nc3)cc(-c3ccc(F)cc3)c2c1N` [Example 62], the IC50 is under 2.5 nM.

On to `Nc1c([S+]([O-])C2CCC2)sc2nc(-c3ccnn3C3CC3)cc(-c3cncnc3)c12` (stereo not shown) [Example 416], for which the half-inhibitory concentration (IC50) was at least 10 nM.

For `COCC[S@@+]([O-])c1sc2nc(-c3cncnc3)cc(-c3ccccc3)c2c1N` [Example 85], the half-maximal inhibitory concentration (IC50) was under 2.5 nM.

On to `Nc1c([S+]([O-])C2CCC2)sc2nc(-c3cnc(NCCO)nc3)cc(-c3ncccc3F)c12` (stereo not shown) [Example 122], for which the IC50 is under 2.5 nM.

Regarding `Nc1c([S+]([O-])C2CCC2)sc2nc(-c3cncnc3)cc(-c3ccno3)c12` (stereo not shown) [Example 311], the IC50 was under 2.5 nM.

With `Cn1nc2cc(-c3cc(-c4ccnn4C)c4c(N)c([S+]([O-])C5CCC5)sc4n3)cnc2n1` (stereo not shown) [Example 378], the half-inhibitory concentration (IC50) was under 2.5 nM.

As for `Nc1c([S+]([O-])C2CCC2)sc2nc(-c3cnc(NCCO)nc3)cc(-c3ccc(F)cn3)c12` (stereo not shown) [Example 118], the IC50 is 2.5 to 10 nM.

Turning to `Nc1c([S+]([O-])C2CCC2)sc2nc(-c3cn[nH]c(=O)c3)cc(C3CCC3)c12` (stereo not shown) [Example 395], the IC50 is under 2.5 nM.

On to `Nc1c([S@+]([O-])C2CCC2)sc2nc(-c3cnc4ncnn4c3)cc(-c3ccccc3)c12` [Example 402], for which the IC50 is under 2.5 nM.

Take `COCC[S+]([O-])c1sc2nc(-c3cncnc3)cc(C(F)(F)F)c2c1N` (stereo not shown) [Example 130]: the half-maximal inhibitory concentration (IC50) was under 2.5 nM.

With `Nc1c([S+]([O-])C2CCC2)sc2nc(-c3cncnc3)cc(-c3ccc(C4COC4)cn3)c12` (stereo not shown) [Example 128], the 50% inhibitory concentration (IC50) is under 2.5 nM.

For the molecule `Cn1ncc(-c2cc(C3CCC3)c3c(N)c([S+]([O-])C4CCC4)sc3n2)cc1=O` (stereo not shown) [Example 398], the 50% inhibitory concentration (IC50) was under 2.5 nM.

Take `COCC[S@+]([O-])c1sc2nc(-c3cnc4nn(C)cc4c3)cc(-c3ccn(C)n3)c2c1N` [Example 344]: the IC50 is at least 10 nM.

For `Cn1nccc1-c1cc(-c2cnc3c(c2)nnn3C)nc2sc([S@@+]([O-])C3CCC3)c(N)c12` [Example 327], the half-inhibitory concentration (IC50) was at least 10 nM.

Regarding `Cn1nccc1-c1cc(-c2cnc(NCCO)nc2)nc2sc([S+]([O-])C3CCC3)c(N)c12` (stereo not shown) [Example 312], the 50% inhibitory concentration (IC50) is under 2.5 nM.

As for `Cc1ncc(-c2cc(C3=CCNN3C)c3c(N)c([S+]([O-])C4CCC4)sc3n2)cn1` (stereo not shown) [Example 315], the IC50 lay within 2.5 to 10 nM.

`COCC[S+]([O-])c1sc2nc(-c3cnc(N(C)CCO)nc3)cc(C(F)(F)F)c2c1N` (stereo not shown) [Example 186]: the IC50 lay in the range of 2.5 to 10 nM.

Turning to `COCC[S+]([O-])c1sc2nc(-c3cnn(C)c3)cc(C(F)(F)F)c2c1N` (stereo not shown) [Example 426], the half-maximal inhibitory concentration (IC50) was under 2.5 nM.

In the case of `Cn1ccc(-c2cc(-c3cccnc3)c3c(N)c([S+]([O-])C4CCC4)sc3n2)cc1=O` (stereo not shown) [Example 90], the IC50 was 2.5 to 10 nM.

Regarding `COCCC[S+]([O-])c1sc2nc(-c3cnc4c(cnn4CCO)c3)cc(C3CC3)c2c1N` (stereo not shown) [Example 302], the half-maximal inhibitory concentration (IC50) was 2.5 to 10 nM.

Consider `Nc1c([S@@+]([O-])C2CCC2)sc2nc(-c3cnc(NCCO)nc3)cc(-c3cccnc3)c12` [Example 104], for which the IC50 is at least 10 nM.

On to `COCCC[S+]([O-])c1sc2nc(-c3cncnc3)cc(-c3cnccn3)c2c1N` (stereo not shown) [Example 233], for which the half-maximal inhibitory concentration (IC50) is under 2.5 nM.

As to `COCCC[S+]([O-])c1sc2nc(-c3cnc4c(cnn4CCO)c3)cc(-c3ccccc3)c2c1N` (stereo not shown) [Example 301], the IC50 fell in the range of 2.5 to 10 nM.

With `COCCC[S+]([O-])c1sc2nc(-c3cnc4c(cnn4C)c3)cc(-c3ccccc3)c2c1N` (stereo not shown) [Example 116], the half-inhibitory concentration (IC50) is 2.5 to 10 nM.

For the molecule `COCC[S+]([O-])c1sc2nc(-c3cnc4nn(CCO)cc4c3)cc(C3CCC3)c2c1N` (stereo not shown) [Example 266], the IC50 was under 2.5 nM.

Turning to `COC(=O)Nc1ncc(-c2cc(-c3ccccn3)c3c(N)c([S+]([O-])C4CCC4)sc3n2)cn1` (stereo not shown) [Example 113], the half-maximal inhibitory concentration (IC50) is 2.5 to 10 nM.

Take `Nc1c([S+]([O-])C2CCC2)sc2nc(-c3cncnc3)cc(-c3ncccc3F)c12` (stereo not shown) [Example 121]: the 50% inhibitory concentration (IC50) is under 2.5 nM.

As to `COCC[S+]([O-])c1sc2nc(-c3cnc(C)nc3)cc(C(F)(F)F)c2c1N` (stereo not shown) [Example 137], the concentration for half-maximal inhibition (IC50) was under 2.5 nM.

Turning to `COCC[S+]([O-])c1sc2nc(-c3cnn(C)c(=O)c3)cc(C3CCC3)c2c1N` (stereo not shown) [Example 396], the IC50 is under 2.5 nM.

In the case of `COCCC[S+]([O-])c1sc2nc(-c3cnn(CCO)c3)cc(-c3ccccc3)c2c1N` (stereo not shown) [Example 274], the half-maximal inhibitory concentration (IC50) was under 2.5 nM.

In the case of `Nc1c([S+]([O-])C2CCC2)sc2nc(-c3cncnc3)cc(C3CCC3)c12` (stereo not shown) [Example 255], the IC50 is under 2.5 nM.

Turning to `COCCn1ccc(-c2cc(-c3cnc4nn(C)cc4c3)nc3sc([S@+]([O-])CCOC)c(N)c23)n1` [Example 387], the IC50 is under 2.5 nM.

For the molecule `COCCC[S+]([O-])c1sc2nc(-c3cnc(N4CC(O)C4)nc3)cc(-c3ccccc3)c2c1N` (stereo not shown) [Example 290], the IC50 lay within 2.5 to 10 nM.

For the molecule `COCC[S@@+]([O-])c1sc2nc(-c3cnc4ncn(C)c4c3)cc(-c3ccccc3)c2c1N` [Example 362], the IC50 is under 2.5 nM.

In the case of `COCCC[S@@+]([O-])c1sc2nc(-c3cncnc3)cc(C(F)(F)F)c2c1N` [Example 200], the IC50 is under 2.5 nM.

Consider `Cn1cncc(-c2cc(C3CCC3)c3c(N)c([S+]([O-])C4CCC4)sc3n2)c1=O` (stereo not shown) [Example 409], for which the IC50 was under 2.5 nM.

`COCC[S+]([O-])c1sc2nc(-c3cnc4ncnn4c3)cc(C3CCC3)c2c1N` (stereo not shown) [Example 400]: the IC50 is under 2.5 nM.

On to `COCC[S+]([O-])c1sc2nc(-c3cnc4c(c3)ncn4C)cc(C3CCC3)c2c1N` (stereo not shown) [Example 376], for which the IC50 is under 2.5 nM.

As for `COCC[S+]([O-])c1sc2nc(-c3cnc4ncn(C)c4c3)cc(C3CC3)c2c1N` (stereo not shown) [Example 404], the IC50 is under 2.5 nM.

On to `COCC[S+]([O-])c1sc2nc(-c3ccc(NC(=O)OC)nc3)cc(C3CCC3)c2c1N` (stereo not shown) [Example 391], for which the half-inhibitory concentration (IC50) fell in the range of 2.5 to 10 nM.

Turning to `Cc1ncc(-c2cc(-c3ccccc3)c3c(N)c([S+]([O-])C4CCC4)sc3n2)cn1` (stereo not shown) [Example 99], the IC50 is under 2.5 nM.

On to `COCC[S@+]([O-])c1sc2nc(-c3cnc4nn(C)cc4c3)cc(-c3ccnn3C)c2c1N` [Example 336], for which the IC50 was at least 10 nM.

In the case of `Nc1c([S@+]([O-])C2CCC2)sc2nc(-c3cc(=O)[nH]cn3)cc(-c3ccccc3)c12` [Example 219], the half-inhibitory concentration (IC50) was under 2.5 nM.

Take `COCC[S+]([O-])c1sc2nc(-c3cnc4ncn(C)c4c3)cc(C3CCC3)c2c1N` (stereo not shown) [Example 365]: the IC50 was under 2.5 nM.

For `Cn1nccc1-c1cc(-c2cnc(NCCO)nc2)nc2sc([S@@+]([O-])C3CCC3)c(N)c12` [Example 314], the IC50 was at least 10 nM.

With `COCCC[S+]([O-])c1sc2nc(-c3cnc(N4CCOCC4)nc3)cc(C(F)(F)F)c2c1N` (stereo not shown) [Example 425], the concentration for half-maximal inhibition (IC50) was 2.5 to 10 nM.

Take `Nc1c([S@+]([O-])C2CCC2)sc2nc(-c3cnc(NCCO)nc3)cc(C(F)(F)F)c12` [Example 205]: the half-maximal inhibitory concentration (IC50) is under 2.5 nM.

In the case of `COCC[S+]([O-])c1sc2nc(-c3cnc4nncn4c3)cc(-c3ccccc3)c2c1N` (stereo not shown) [Example 358], the IC50 is at least 10 nM.

On to `COCC[S+]([O-])c1sc2nc(-c3ccnnc3)cc(-c3ccccc3)c2c1N` (stereo not shown) [Example 210], for which the IC50 is under 2.5 nM.

In the case of `CN(CCO)c1ncc(-c2cc(-c3ccccc3)c3c(N)c([S@+]([O-])C4CCC4)sc3n2)cn1` [Example 179], the 50% inhibitory concentration (IC50) was under 2.5 nM.

Consider `CS(=O)(=O)Nc1ncc(-c2cc(-c3ccccn3)c3c(N)c([S+]([O-])C4CCC4)sc3n2)cn1` (stereo not shown) [Example 108], for which the half-inhibitory concentration (IC50) is under 2.5 nM.

Consider `COCC[S@+]([O-])c1sc2nc(-c3cncnc3)cc(C(F)(F)F)c2c1N` [Example 199], for which the concentration for half-maximal inhibition (IC50) was at least 10 nM.

As for `Nc1c([S+]([O-])C2CCC2)sc2nc(-c3cnc(NCCO)nc3)cc(-c3ccc(F)cc3)c12` (stereo not shown) [Example 158], the concentration for half-maximal inhibition (IC50) was 2.5 to 10 nM.

Regarding `COCCC[S+]([O-])c1sc2nc(-c3cnc4nn(C)cc4c3)cc(-c3ccccc3)c2c1N` (stereo not shown) [Example 123], the IC50 was under 2.5 nM.

As for `Cn1nccc1-c1cc(-c2cnc3nccn3c2)nc2sc([S+]([O-])C3CCC3)c(N)c12` (stereo not shown) [Example 320], the IC50 was under 2.5 nM.

With `Nc1c([S+]([O-])C2CCC2)sc2nc(-c3ccc(=O)[nH]c3)cc(-c3ccc(C4COC4)cc3)c12` (stereo not shown) [Example 174], the 50% inhibitory concentration (IC50) lay within 2.5 to 10 nM.

In the case of `COCC[S+]([O-])c1sc2nc(-c3cnc4nn(C)cc4c3)cc(C(F)(F)F)c2c1N` (stereo not shown) [Example 417], the half-inhibitory concentration (IC50) was under 2.5 nM.
